# Columns and labels:
# [1] = Quantitative sweetness synergy of monatin in blends with other sweeteners; assay type: in vivo
# [2] = Stability of monatin at pH 3 with increasing temperatures; assay type: physicochemical
# Protocol: A sample of synthetic monatin was subjected to pH 3 at temperatures of 25° C., 50° C. and 100° C. At room temperature and pH 3, a 14% loss in monatin was observed over a period of 48 hours. This loss was attributed to lactone formation. At 50° C. and pH 3, a 23% loss in monatin was observed over a period of 48 hours. This loss was attributed to lactone formation and the buildup of an unknown compound after about 15.5 minutes. […] The major detectable component was an unknown at 15.5 minutes.
# [3] = Sensory stability of monatin and aspartame at pH 2.5, 3.0, 4.0 at 40° C. (sweetness vs sucrose standards, panel n=8); assay type: physicochemical; conditions: for Rate constant (k; day^−1) of sweetness loss: pseudo-first order assumed
# Protocol: The sensory stability of monatin solutions prepared at pH 2.5, 3.0 and 4.0 and stored at 40° C. was monitored for 100 days. Loss of sweetness from these solutions was compared with the losses of sweetness from aspartame solutions prepared and stored under identical conditions.
# The sensory stability of monatin (8% SEV, ˜55 ppm, synthetic blend containing approximately 96% of the 2R,4R/2S, 4S enantiometric pair and 4% of the 2R,4S/2S,4R enantiometric pair) in phosphate/citrate buffers having a pH of 2.5, 3.0, and 4.0 was examined after storage at 40° C. The stability of monatin was compared to that of aspartame (400 ppm) in the same buffers. Three sucrose reference solutions were prepared in the same phosphate/citrate buffers as the monatin and aspartame solutions. All prepared solutions were stored in the dark.
# • pH2.5 Phosphoric acid (75% solution) 0.127% (w/v) • Tri-sodium citrate monohydrate 0.005% (w/v) • pH3.0 Phosphoric acid (75% solution) 0.092% (w/v) • Tri-sodium citrate monohydrate 0.031% (w/v) • pH4.0 Phosphoric acid (75% solution) 0.071% (w/v) • Tri-sodium citrate monohydrate 0.047% (w/v)
# The sweetness of each sweetener relative to sucrose was assessed in duplicate by a small panel (n=8) of trained sensory evaluators experienced in the sweetness estimation procedure. All samples (in the same buffers) were served in duplicate at a temperature of 22° C.±1° C. Monatin (test) solutions, coded with 3 digit random number codes were presented individually to panelists, in random order. Sucrose reference standards, ranging from 4.0-10.0% (w/v) sucrose, increasing in steps of 0.5% (w/v) sucrose were also provided. Panelists were asked to estimate sweetness by comparing the sweetness of the test solution to the sucrose standards. This was carried out by taking 3 sips of the test solution, followed by a sip of water, followed by 3 sips of sucrose standard followed by a sip of water, etc. Panelists were encouraged to estimate the sweetness to one decimal place, e.g., 6.8, 8.5. A five minute rest period was imposed between evaluating the test solutions. Panelists were also asked to rinse well and eat a cracker to reduce any potential carry over effects.
# If a pseudo-first order breakdown reaction is assumed, a plot of logn percentage retention versus time (logn% RTN v. t) allows estimation of the half-life (t½) and rate constant (k) of sweetness loss under any given set of conditions. In so doing, the kinetics of monatin and aspartame sweetness loss may be summarized as follows in Table 13.
# [4] = Stability of monatin at high temperature (80° C.) and neutral pH, LC-MS; assay type: physicochemical; conditions: pH 7, 75 ppm, after 7-35 days
# Protocol: A 100 milliliter solution of 75 ppm monatin at pH 7 was used as a stock solution. The synthetic monatin sample contained approximately 96% of the 2R,4R/2S,4S enantiomeric pair and 4% of the 2R,4S/2S,4R enantiomeric pair. Samples were incubated at 80° C. and pH 7 for the duration of the experiment and samples were withdrawn at 0, 1, 2, 3, 4 hours and 1, 2, 4, 7, 14, 21 and 35 days. All experimental conditions were run in duplicate.
# Separation and Quantification Using LC-MS using Reverse Phase Chromatography A response curve was established for both detected diastereomer peaks of the synthetic monatin. A range of 5-150 ppm was bracketed with the synthetic monatin standard dissolved in DI water. Separation of the two diastereomer peaks was accomplished using a 3.9×1 50 mm Novapak C18 (Waters Corporation) HPLC column. Ultraviolet-Visible (UV) and Mass Spectrometer (MS) detectors were used in series for detection and quantitation. Monatin and its lactone peak each have a UVmax at 279 nm that aided in precise detection. Quantification was done by acquiring Selected Ion Monitoring (SIM) scan of 293.3 m/z and 275.3 m/z in positive-ion electrospray mode.
# [5] = pH 2.5, 40° C., day 1, monatin ~55 ppm
# [6] = pH 2.5, 40° C., day 2, monatin ~55 ppm
# [7] = pH 2.5, 40° C., day 3, monatin ~55 ppm
# [8] = pH 2.5, 40° C., day 4, monatin ~55 ppm
# [9] = pH 2.5, 40° C., day 7, monatin ~55 ppm
# [10] = pH 2.5, 40° C., day 8, monatin ~55 ppm
# [11] = pH 2.5, 40° C., day 9, monatin ~55 ppm
# [12] = pH 2.5, 40° C., day 11, monatin ~55 ppm
# [13] = pH 2.5, 40° C., day 50, monatin ~55 ppm
# [14] = pH 2.5, 40° C., day 100, monatin ~55 ppm
# [15] = pH 3.0, 40° C., day 1, monatin ~55 ppm
# [16] = pH 3.0, 40° C., day 2, monatin ~55 ppm
# [17] = pH 3.0, 40° C., day 3, monatin ~55 ppm
# [18] = pH 3.0, 40° C., day 4, monatin ~55 ppm
# [19] = pH 3.0, 40° C., day 7, monatin ~55 ppm
# [20] = pH 3.0, 40° C., day 8, monatin ~55 ppm
# [21] = pH 3.0, 40° C., day 9, monatin ~55 ppm
# [22] = pH 3.0, 40° C., day 11, monatin ~55 ppm
# [23] = pH 3.0, 40° C., day 50, monatin ~55 ppm
# [24] = pH 3.0, 40° C., day 100, monatin ~55 ppm
# [25] = pH 4.0, 40° C., day 3, monatin ~55 ppm
# [26] = pH 4.0, 40° C., day 8, monatin ~55 ppm
# [27] = pH 4.0, 40° C., day 11, monatin ~55 ppm
# [28] = pH 4.0, 40° C., day 17, monatin ~55 ppm
# [29] = pH 4.0, 40° C., day 24, monatin ~55 ppm
# [30] = pH 4.0, 40° C., day 50, monatin ~55 ppm
# [31] = pH 4.0, 40° C., day 100, monatin ~55 ppm
compound,measurement,setting,value
"NC(CC(O)(Cc1c[nH]c2ccccc12)C(=O)O)C(=O)O (stereo not drawn) [Monatin, 2-hydroxy-2-(indol-3-ylmethyl)-4-aminoglutaric acid]",quantitative synergy with cyclamates,[1]; blend with cyclamates,quantitatively synergistic
same,quantitative synergy with other sweeteners,"[1]; with aspartame, saccharin, acesulfame-K, sucralose, or carbohydrate sweeteners",no significant quantitative synergy
same,loss in monatin,"[2]; 50° C., pH 3, 48 hours",23%
same,loss in monatin,"[2]; 100° C., pH 3, 24 hours",nearly all monatin was lost
same,loss in monatin,"[2]; room temperature (25° C.), pH 3, 48 hours",14%
same,SEV Monatin (% sucrose),"[3]; pH 2.5, 40° C., day 0, monatin ~55 ppm",7.35 % sucrose
same,Retention of Monatin Sweetness (%),[3]; [5],93.3%
same,SEV Monatin (% sucrose),[3]; [5],6.86 % sucrose
same,Retention of Monatin Sweetness (%),[3]; [6],91.2%
same,SEV Monatin (% sucrose),[3]; [6],6.70 % sucrose
same,Retention of Monatin Sweetness (%),[3]; [7],88.4%
same,SEV Monatin (% sucrose),[3]; [7],6.50 % sucrose
same,Retention of Monatin Sweetness (%),[3]; [8],85.2%
same,SEV Monatin (% sucrose),[3]; [8],6.26 % sucrose
same,Retention of Monatin Sweetness (%),[3]; [9],82.7%
same,SEV Monatin (% sucrose),[3]; [9],6.08 % sucrose
same,Retention of Monatin Sweetness (%),[3]; [10],81.4%
same,SEV Monatin (% sucrose),[3]; [10],5.98 % sucrose
same,Retention of Monatin Sweetness (%),[3]; [11],80.1%
same,SEV Monatin (% sucrose),[3]; [11],5.89 % sucrose
same,Retention of Monatin Sweetness (%),[3]; [12],78.6%
same,SEV Monatin (% sucrose),[3]; [12],5.78 % sucrose
same,Retention of Monatin Sweetness (%),[3]; [13],62.7%
same,SEV Monatin (% sucrose),[3]; [13],4.61 % sucrose
same,Retention of Monatin Sweetness (%),[3]; [14],28.6%
same,SEV Monatin (% sucrose),[3]; [14],2.10 % sucrose
same,Rate constant (k; day^−1) of sweetness loss,"[3]; pH 2.5, 40° C.",0.011 day⁻¹
same,Sweetness Retained (%),"[3]; pH 2.5, 100 days storage at 40° C.",29%
same,SEV Monatin (% sucrose),"[3]; pH 3.0, 40° C., day 0, monatin ~55 ppm",7.08 % sucrose
same,Retention of Monatin Sweetness (%),[3]; [15],99.6%
same,SEV Monatin (% sucrose),[3]; [15],7.05 % sucrose
same,Retention of Monatin Sweetness (%),[3]; [16],93.2%
same,SEV Monatin (% sucrose),[3]; [16],6.60 % sucrose
same,Retention of Monatin Sweetness (%),[3]; [17],91.4%
same,SEV Monatin (% sucrose),[3]; [17],6.47 % sucrose
same,Retention of Monatin Sweetness (%),[3]; [18],91.6%
same,SEV Monatin (% sucrose),[3]; [18],6.49 % sucrose
same,Retention of Monatin Sweetness (%),[3]; [19],85.3%
same,SEV Monatin (% sucrose),[3]; [19],6.04 % sucrose
same,Retention of Monatin Sweetness (%),[3]; [20],83.8%
same,SEV Monatin (% sucrose),[3]; [20],5.93 % sucrose
same,Retention of Monatin Sweetness (%),[3]; [21],83.1%
same,SEV Monatin (% sucrose),[3]; [21],5.88 % sucrose
same,Retention of Monatin Sweetness (%),[3]; [22],83.1%
same,SEV Monatin (% sucrose),[3]; [22],5.88 % sucrose
same,Retention of Monatin Sweetness (%),[3]; [23],72.3%
same,SEV Monatin (% sucrose),[3]; [23],5.12 % sucrose
same,Retention of Monatin Sweetness (%),[3]; [24],57.9%
same,SEV Monatin (% sucrose),[3]; [24],4.10 % sucrose
same,Rate constant (k; day^−1) of sweetness loss,"[3]; pH 3.0, 40° C.",0.006 day⁻¹
same,Sweetness Retained (%),"[3]; pH 3.0, 100 days storage at 40° C.",58%
same,SEV Monatin (% sucrose),"[3]; pH 4.0, 40° C., day 0, monatin ~55 ppm",7.40 % sucrose
same,Retention of Monatin Sweetness (%),[3]; [25],95.7%
same,SEV Monatin (% sucrose),[3]; [25],7.08 % sucrose
same,Retention of Monatin Sweetness (%),[3]; [26],86.8%
same,SEV Monatin (% sucrose),[3]; [26],6.42 % sucrose
same,Retention of Monatin Sweetness (%),[3]; [27],85.9%
same,SEV Monatin (% sucrose),[3]; [27],6.36 % sucrose
same,Retention of Monatin Sweetness (%),[3]; [28],82.4%
same,SEV Monatin (% sucrose),[3]; [28],6.10 % sucrose
same,Retention of Monatin Sweetness (%),[3]; [29],84.5%
same,SEV Monatin (% sucrose),[3]; [29],6.25 % sucrose
same,Retention of Monatin Sweetness (%),[3]; [30],82.9%
same,SEV Monatin (% sucrose),[3]; [30],6.14 % sucrose
same,Retention of Monatin Sweetness (%),[3]; [31],78.4%
same,SEV Monatin (% sucrose),[3]; [31],5.80 % sucrose
same,Rate constant (k; day^−1) of sweetness loss,"[3]; pH 4.0, 40° C.",0.003 day⁻¹
same,Sweetness Retained (%),"[3]; pH 4.0, 100 days storage at 40° C.",78%
same,degree of degradation of monatin,[4],insignificant

# — patent US20050112260A1, “Monatin tabletop sweetener compositions and methods of making same” (Cargill, Inc., priority 2003, published 2005)
